Source: US7538241B2, “Hsp90 family protein inhibitors” (Kyowa Hakko Kogyo Co., Ltd., priority 2003, dated 2009)

test system: human mammary cancer-derived KPL-4 cells; test: Cell growth inhibition test with KPL-4 cells (WST-1); format: cell-based; settings: KPL4, 72 hours, read-out: 50% growth inhibition concentration (GI50)
Protocol: In a 96-well plate (Nunc), human mammary cancer-derived KPL-4 cells were sown in an amount of 2000 cells/well, and pre-incubated in 10% fetal calf serum (FCS)-containing Dulbecco Modified Eagle Medium (DMEM) (incubation medium) in a 5% carbon dioxide incubator at 37° C. for 24 hours. A dimethylsulfoxide (DMSO) solution of a test compound controlled at 10 mmol/L was stepwise diluted with the incubation medium, and added to each well in a total amount of 100 μL/well, and incubated in the 5% carbon dioxide incubator at 37° C. for 72 hours. After the incubation, WST-1 {4-[3-(4-Iodophenyl)-2-(4-nitrophenyl)-2H-5-tetrazolio]-1,3-benzene disulfonate}-labeled mixture (Rosh Diagnostic) diluted 2-fold with the incubation medium was added thereto in an amount of 20 μL/well, and incubated in the 5% carbon dioxide incubator at 37° C. for 1 hour. Using a microplate spectrophotometer (Biorad's Model 550), the absorbance at 450 nm and 655 nm of each well was measured. The cell growth inhibition activity of the test compound was indicated by the 50% growth inhibition concentration (GI50) thereof. A method of calculating GI50 is described. The absorbance at 655 nm of each well was subtracted from the absorbance at 450 nm thereof to give a value (absorbance difference). The absorbance difference obtained with the cells without being treated with the test compound was taken as 100%, and this was compared with the absorbance difference obtained with the cells treated with the test compound to give the concentration of the compound for 50% cell growth inhibition, and this is referred to as GI50.

GI50, ≤ 50 µM:
COC(=O)Cc1cc(O)cc(O)c1-c1ccccc1 [Compound 1, Methyl 3,5-dihydroxy-2-phenylphenylacetate]
COC(=O)Cc1cc(O)cc(O)c1-c1cccc(C=NO)c1 [Compound 3, Methyl 3,5-dihydroxy-2-[3-(hydroxyiminomethyl)phenyl]phenylacetate]
COC(=O)Cc1cc(O)cc(O)c1-c1cccc(C(C)=O)c1 [Compound 8, Methyl 2-(3-acetylphenyl)-3,5-dihydroxyphenylacetate]
COC(=O)Cc1c(Br)c(O)cc(O)c1-c1ccccc1 [Compound 10, Methyl 2-bromo-3,5-dihydroxy-6-phenylphenylacetate]
COC(=O)Cc1c(-c2ccccc2)c(O)cc(O)c1-c1ccccc1 [Compound 11, Methyl 3,5-dihydroxy-2,6-diphenylphenylacetate]
COC(=O)Cc1c(I)c(O)cc(O)c1-c1ccccc1 [Compound 13, Methyl 3,5-dihydroxy-2-iodo-6-phenylphenylacetate]
O=C(Cc1c(Br)c(O)cc(O)c1-c1ccccc1)NCc1cccnc1 [Compound 17, 2-(2-Bromo-3,5-dihydroxy-6-phenylphenyl)-N-(pyridin-3-ylmethyl)acetamide]
O=C(Cc1c(Br)c(O)cc(O)c1-c1ccccc1)NC1CCN(Cc2ccccc2)CC1 [Compound 18, N-(1-benzylpiperidin-4-yl)-2-(2-bromo-3,5-dihydroxy-6-phenylphenyl)acetamide]
COCCNC(=O)Cc1c(Br)c(O)cc(O)c1-c1ccccc1 [Compound 23, 2-(2-Bromo-3,5-dihydroxy-6-phenylphenyl)-N-(2-methoxyethyl)acetamide]
Oc1cc(O)c(-c2ccccc2)c(COCc2ccccc2)c1Br [Compound 25, 5-(Benzyloxymethyl)-6-bromo-4-phenylbenzene-1,3-diol]
O=C(Cc1c(Br)c(O)cc(O)c1-c1ccccc1)N1CCOCC1 [Compound 35, 2-(2-Bromo-3,5-dihydroxy-6-phenylphenyl)-1-morpholinoethanone]
CCCN(C)C(=O)Cc1c(Br)c(O)cc(O)c1-c1ccccc1 [Compound 36, 2-(2-Bromo-3,5-dihydroxy-6-phenylphenyl)-N-methyl-N-propylacetamide]
N#Cc1ccccc1N1CCN(C(=O)Cc2c(Br)c(O)cc(O)c2-c2ccccc2)CC1 [Compound 38, 2-(2-Bromo-3,5-dihydroxy-6-phenylphenyl)-1-[4-(2-cyanophenyl)piperazin-1-yl]ethanone]
NC(=O)Cc1c(Br)c(O)cc(O)c1-c1ccccc1 [Compound 41, 2-(2-Bromo-3,5-dihydroxy-6-phenylphenyl)acetamide]
CN(C)C(=O)Cc1c(Br)c(O)cc(O)c1-c1ccccc1 [Compound 43, 2-(2-Bromo-3,5-dihydroxy-6-phenylphenyl)-N,N-dimethylacetamide]
COC(=O)c1c(Br)c(O)cc(O)c1-c1ccccc1 [Compound 47, Methyl 2-bromo-3,5-dihydroxy-6-phenylbenzoate]
O=C(NCc1ccccc1)c1c(Br)c(O)cc(O)c1-c1ccccc1 [Compound 51, N-benzyl-2-bromo-3,5-dihydroxy-6-phenylbenzamide]
O=C(Cc1c(Br)c(O)cc(O)c1-c1ccccc1)NCc1ccncc1 [Compound 54, 2-(2-Bromo-3,5-dihydroxy-6-phenylphenyl)-N-(pyridin-4-ylmethyl)acetamide]
COC(=O)Cc1c(C=O)c(O)cc(O)c1-c1ccccc1 [Compound 55, Methyl 2-formyl-3,5-dihydroxy-6-phenylphenylacetate]
COC(=O)Cc1c(C)c(O)cc(O)c1-c1ccccc1 [Compound 56, Methyl 3,5-dihydroxy-6-methyl-2-phenylphenylacetate]
O=C(c1ccccc1)c1c(Br)c(O)cc(O)c1-c1ccccc1 [Compound 58, 2-Bromo-3,5-dihydroxy-6-phenylphenyl phenyl ketone]
COC(=O)C=Cc1c(Br)c(O)cc(O)c1-c1ccccc1 [Compound 59, Methyl 3-(2-bromo-3,5-dihydroxy-6-phenylphenyl)acrylate]
CC(=O)C=Cc1c(Br)c(O)cc(O)c1-c1ccccc1 [Compound 60, 4-(2-Bromo-3,5-dihydroxy-6-phenylphenyl)but-3-en-2-one]
COc1c(Br)c(O)cc(O)c1-c1ccccc1 [Compound 61, 6-Bromo-5-methoxy-4-phenylbenzene-1,3-diol]
OCCc1c(Br)c(O)cc(O)c1-c1ccccc1 [Compound 62, 6-Bromo-5-(2-hydroxyethyl)-4-phenylbenzene-1,3-diol]
COCCc1c(Br)c(O)cc(O)c1-c1ccccc1 [Compound 64, 6-Bromo-5-(2-methoxyethyl)-4-phenylbenzene-1,3-diol]
CC(=O)Cc1c(Br)c(O)cc(O)c1-c1ccccc1 [Compound 65, 1-(2-Bromo-3,5-dihydroxy-6-phenylphenyl)propan-2-one]
COC(=O)Cc1c(Cc2ccccc2)c(O)cc(O)c1-c1ccccc1 [Compound 70, Methyl 2-benzyl-3,5-dihydroxy-6-phenylphenylacetate]
COCCOCc1c(Br)c(O)cc(O)c1-c1ccccc1 [Compound 71, 6-Bromo-5-[(2-methoxyethoxy)methyl]-4-phenylbenzene-1,3-diol]
COCCOCCOCc1c(Br)c(O)cc(O)c1-c1ccccc1 [Compound 72, 6-Bromo-5-[2-(2-methoxyethoxy)ethoxymethyl]-4-phenylbenzene-1,3-diol]
COC(=O)Cc1cc(O)cc(O)c1-c1ccc(C(C)=O)cc1 [Compound 73, Methyl 2-(4-acetylphenyl)-3,5-dihydroxyphenylacetate]
COC(=O)Cc1cc(O)cc(O)c1-c1cccc(OC(F)(F)F)c1 [Compound 74, Methyl 3,5-dihydroxy-2-[3-(trifluoromethoxy)phenyl]phenylacetate]
COC(=O)Cc1cc(O)cc(O)c1-c1ccc(OC(F)(F)F)cc1 [Compound 75, Methyl 3,5-dihydroxy-2-[4-(trifluoromethoxy)phenyl]phenylacetate]
COC(=O)Cc1cc(O)cc(O)c1-c1cccc(CO)c1 [Compound 76, Methyl 3,5-dihydroxy-2-[3-(hydroxymethyl)phenyl]phenylacetate]
COC(=O)Cc1cc(O)cc(O)c1-c1cccc([N+](=O)[O-])c1 [Compound 77, Methyl 3,5-dihydroxy-2-(3-nitrophenyl)phenylacetate]
COC(=O)Cc1cc(O)cc(O)c1-c1cccc(C#N)c1 [Compound 78, Methyl 2-(3-cyanophenyl)-3,5-dihydroxyphenylacetate]
COC(=O)Cc1cc(O)cc(O)c1-c1ccc(-c2ccccc2)cc1 [Compound 79, Methyl 3,5-dihydroxy-2-(4-phenylphenyl)phenylacetate]
COC(=O)Cc1cc(O)cc(O)c1-c1ccc(Oc2ccccc2)cc1 [Compound 80, Methyl 3,5-dihydroxy-2-(4-phenoxyphenyl)phenylacetate]
COC(=O)Cc1cc(O)cc(O)c1-c1cccc(OC)c1 [Compound 81, Methyl 3,5-dihydroxy-2-(3-methoxyphenyl)phenylacetate]
COC(=O)Cc1cc(O)cc(O)c1-c1ccc(OC)cc1 [Compound 82, Methyl 3,5-dihydroxy-2-(4-methoxyphenyl)phenylacetate]
Oc1cc(O)c(-c2ccccc2)c(COCC2CCCO2)c1Br (centres unmarked) [Compound 85, 6-Bromo-5-[(oxolan-2-ylmethoxy)methyl]-4-phenylbenzene-1,3-diol]
COC(=O)CCc1c(Br)c(O)cc(O)c1-c1ccccc1 [Compound 87, Methyl 3-(2-bromo-3,5-dihydroxy-6-phenylphenyl)propanoate]
COc1ccccc1N1CCN(C(=O)Cc2c(Br)c(O)cc(O)c2-c2ccccc2)CC1 [Compound 88, 2-(2-Bromo-3,5-dihydroxy-6-phenylphenyl)-1-[4-(2-methoxyphenyl)piperazin-1-yl]ethanone]
CN(CCc1ccccn1)C(=O)Cc1c(Br)c(O)cc(O)c1-c1ccccc1 [Compound 89, 2-(2-Bromo-3,5-dihydroxy-6-phenylphenyl)-N-methyl-N-[2-(pyridin-2-yl)ethyl]acetamide]
N#Cc1cccnc1N1CCN(C(=O)Cc2c(Br)c(O)cc(O)c2-c2ccccc2)CC1 [Compound 90, 2-(2-Bromo-3,5-dihydroxy-6-phenylphenyl)-1-[4-(3-cyanopyridin-2-yl)piperazin-1-yl]ethanone]
O=C(Cc1c(Br)c(O)cc(O)c1-c1ccccc1)N1CCN(C(=O)c2ccco2)CC1 [Compound 91, 2-(2-Bromo-3,5-dihydroxy-6-phenylphenyl)-1-[4-(2-furoyl)piperazin-1-yl]ethanone]
COCCc1c(CC(C)=O)c(O)cc(O)c1-c1ccccc1 [Compound 94, 1-[2,4-Dihydroxy-6-(2-methoxyethyl)-5-phenylphenyl]propanone]
